Laboratory results published in US9920010B2, “CXCR7 receptor modulators” (IDORSIA PHARMACEUTICALS LTD, priority 2013, dated 2018).

What follows are compounds tested against T1, CXCR7 (Homo sapiens, UniProt P25106) (assay: PathHunter CHO-K1 CXCR7 b-arrestin recruitment assay (CXCR7 agonistic activity)). Conditions: PathHunter CHO-K1 CXCR7 b-arrestin cell line.
T1 construct: host or cells: CHO-K1 (PathHunter CHO-K1 CXCR7 b-arrestin cell line, stably transfected)
Format: cell-based
Experimental: The CXCl12 receptor and CXCR7 agonistic activities of the compounds of formula (I) are determined in accordance with the following experimental method.
The assay is using the PathHunter™ CHO-K1 CXCR7 b-arrestin cell line from DiscoverX. The system is based on the Enzyme Fragment Complementation Technology. Two complementing fragments of the b-galactosidase enzyme are expressed within stably transfected cells. The larger portion of b-gal, termed EA for Enzyme Acceptor, is fused to the C-terminus of b-arrestin 2. The smaller fragment, termed ProLink™ tag, is fused to CXCR7 at the C-terminus. Upon activation, b-arrestin is recruited which forces the interaction of ProLink and EA, allowing complementation of the two fragments of b-gal and the formation of a functional enzyme which is capable of hydrolysing the substrate and generating a chemiluminescent signal.
CHO-K1 CXCR7 b-arrestin cells are detached from culture dishes with a cell dissociation buffer (Invitrogen, #13151-014) and collected in growing medium (F12 HAMS 90% (v/v)/FCS 10% (v/v), Penicillin/streptomycin 1% (v/v)). 5000 cells per well (in 20 μl) are seeded in a 384 well plate (white-walled, clear bottom; BD Falcon #353274). The plate is incubated at 37° C./5% CO2 for 24 hours. Medium is then replaced by 20 μl OPTIMEM (Invitrogen #31985) for 3 to 4 hours. Test compounds are dissolved at 10 mM in DMSO and serially diluted in DMSO to 200× of the final concentration for dose response curves. Compounds are then diluted 1:33.3 in HBSS1×. 5 μl/well of HBSS1×/20 mM HEPES/0.2% BSA are added to the assay plate followed by addition of 5 μl/well of diluted compounds. CXCL12 (Peprotech #300-28A) may be used as a reference agonist. The plate is incubated for 90 minutes at 37° C. 12 μl of detection reagent (Path Hunter Detection Kit, DiscoveRx, #93-0001) is transferred to the assay plate and to the plate is incubated for 1 hour at room temperature. Luminescent signal is read in a microplate reader (FLUOstar Optima, bmg). The calculated EC50 values may fluctuate depending on the daily cellular assay performance. Fluctuations of this kind are known to those skilled in the art. Average EC50 values from several measurements are given as geometric mean values.

T1 sequence (P25106 whole entry): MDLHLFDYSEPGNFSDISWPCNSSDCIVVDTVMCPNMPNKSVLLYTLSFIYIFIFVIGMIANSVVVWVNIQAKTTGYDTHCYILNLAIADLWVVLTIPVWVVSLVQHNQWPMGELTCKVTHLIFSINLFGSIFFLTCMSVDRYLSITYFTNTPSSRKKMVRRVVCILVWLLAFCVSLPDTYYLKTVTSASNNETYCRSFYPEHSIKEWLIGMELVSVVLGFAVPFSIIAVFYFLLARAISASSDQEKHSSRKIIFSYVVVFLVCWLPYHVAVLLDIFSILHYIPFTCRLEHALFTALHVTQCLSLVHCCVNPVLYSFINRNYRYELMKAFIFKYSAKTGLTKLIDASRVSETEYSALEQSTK
T1 sequence (P32121 whole entry partner): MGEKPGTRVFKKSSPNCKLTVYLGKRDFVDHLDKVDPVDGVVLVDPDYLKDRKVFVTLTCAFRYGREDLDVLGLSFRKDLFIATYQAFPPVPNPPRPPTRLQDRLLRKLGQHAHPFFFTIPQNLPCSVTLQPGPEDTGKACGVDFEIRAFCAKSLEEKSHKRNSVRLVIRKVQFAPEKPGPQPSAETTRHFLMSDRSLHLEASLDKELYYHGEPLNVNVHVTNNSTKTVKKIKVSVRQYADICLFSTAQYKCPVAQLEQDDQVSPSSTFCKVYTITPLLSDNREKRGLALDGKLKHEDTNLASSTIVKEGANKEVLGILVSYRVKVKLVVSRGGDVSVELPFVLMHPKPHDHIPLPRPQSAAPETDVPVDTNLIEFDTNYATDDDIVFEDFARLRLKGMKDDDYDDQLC

Point of comparison: `CCN1CCc2cccc(NCC(=O)N(Cc3ccccc3C(F)(F)F)C3CCCN(C)C3)c2C1` (racemic) [compound 518], EC50 9 nM. Against it:
- CC(C)(O)CN(Cc1ncccc1Cl)C(=O)/C=C/c1cccc2c1CCN(C(=O)[C@H]1C[C@H]1F)C2 (racemic) [Example 331, rac-(E)-N-(3-Chloro-pyridin-2-ylmethyl)-3-[2-((1R*,2R*)-2-fluoro-cyclopropanecarbonyl)-1,2,3,4-tetrahydro-isoquinolin-5-yl]-N-(2-hydroxy-2-methyl-propyl)-acrylamide] — 35-fold higher, 314 nM
- O=C(/C=C/c1cccc2c1CCN(C(=O)[C@H]1C[C@H]1F)C2)N(CCN1CCC(F)(F)CC1)Cc1ncccc1Cl (racemic) [Example 332, rac-(E)-N-(3-Chloro-pyridin-2-ylmethyl)-N-[2-(4,4-difluoro-piperidin-1-yl)-ethyl]-3-[2-((1R*,2R*)-2-fluoro-cyclopropanecarbonyl)-1,2,3,4-tetrahydro-isoquinolin-5-yl]-acrylamide] — 11-fold higher, 96 nM
- CC(Oc1cccc2c1CCN(CC1CC1)C2)C(=O)N(CCN(C)C)Cc1ccccc1C(F)(F)F (racemic) [Example 350, rac-2-(2-Cyclopropylmethyl-1,2,3,4-tetrahydro-isoquinolin-5-yloxy)-N-(2-dimethylamino-ethyl)-N-(2-trifluoromethyl-benzyl)-propionamide] — 3.6-fold higher, 32 nM
- CN(C)CCN(Cc1ccccc1C(F)(F)F)C(=O)CNc1cccc2c1CCN(C1CCOC1)C2 (racemic) [Example 351, rac-N-(2-Dimethylamino-ethyl)-2-[2-(tetrahydro-furan-3-yl)-1,2,3,4-tetrahydro-isoquinolin-5-ylamino]-N-(2-trifluoromethyl-benzyl)-acetamide] — 3.8-fold higher, 34 nM
- COCC(C)N1CCc2c(cccc2NCC(=O)N(CCN(C)C)Cc2ccccc2C(F)(F)F)C1 (racemic) [Example 354, rac-N-(2-Dimethylamino-ethyl)-2-[2-(2-methoxy-1-methyl-ethyl)-1,2,3,4-tetrahydro-isoquinolin-5-ylamino]-N-(2-trifluoromethyl-benzyl)-acetamide] — within 1.5-fold, 11 nM
- CC(C)C(C)N1CCc2c(cccc2NCC(=O)N(CCN(C)C)Cc2ccccc2C(F)(F)F)C1 (racemic) [Example 355, rac-N-(2-Dimethylamino-ethyl)-2-[2-(1,2-dimethyl-propyl)-1,2,3,4-tetrahydro-isoquinolin-5-ylamino]-N-(2-trifluoromethyl-benzyl)-acetamide] — within 1.5-fold, 10 nM
- CCC(C)N1CCc2c(cccc2NCC(=O)N(CCN(C)C)Cc2ccccc2C(F)(F)F)C1 (racemic) [Example 356, rac-2-(2-sec-Butyl-1,2,3,4-tetrahydro-isoquinolin-5-ylamino)-N-(2-dimethylamino-ethyl)-N-(2-trifluoromethyl-benzyl)-acetamide] — 1.5-fold lower, 6 nM
- CN(C)CCN(Cc1ccccc1C(F)(F)F)C(=O)CNc1cccc2c1CCN(C(=O)[C@H]1C[C@H]1F)C2 (racemic) [Example 363, rac-N-(2-Dimethylamino-ethyl)-2-[2-((1R*,2R*)-2-fluoro-cyclopropanecarbonyl)-1,2,3,4-tetrahydro-isoquinolin-5-ylamino]-N-(2-trifluoromethyl-benzyl)-acetamide] — 3-fold lower, 3 nM
- CN(C)CCN(Cc1ncccc1C(F)(F)F)C(=O)CNc1cccc2c1CCN(C1CCOC1)C2 (racemic) [Example 365, rac-N-(2-Dimethylamino-ethyl)-2-[2-(tetrahydro-furan-3-yl)-1,2,3,4-tetrahydro-isoquinolin-5-ylamino]-N-(3-trifluoromethyl-pyridin-2-ylmethyl)-acetamide] — 3.9-fold higher, 35 nM
- O=C(CNc1cccc2c1CCN(C(=O)[C@@H]1C[C@@H]1F)C2)N(Cc1ccccc1C(F)(F)F)CC1(O)CCCC1 (racemic) [Example 372, rac-2-[2-((1S*,2S*)-2-Fluoro-cyclopropanecarbonyl)-1,2,3,4-tetrahydro-isoquinolin-5-ylamino]-N-(1-hydroxy-cyclopentylmethyl)-N-(2-trifluoromethyl-benzyl)-acetamide] — 30-fold higher, 271 nM
- CN(C)CCN(Cc1ccccc1C(F)(F)F)C(=O)CNc1cccc2c1CCN(C(=O)C1CC1(F)F)C2 (racemic) [Example 570, rac-2-[2-(2,2-Difluoro-cyclopropanecarbonyl)-1,2,3,4-tetrahydro-isoquinolin-5-ylamino]-N-(2-dimethylamino-ethyl)-N-(2-trifluoromethyl-benzyl)-acetamide] — 1.6-fold higher, 14 nM
- CN1CCN(C(=O)CNc2cccc3c2CCN(CC2CC2)C3)C(c2ccccc2)C1 (racemic) [Reference Example 104, rac-2-(2-Cyclopropylmethyl-1,2,3,4-tetrahydro-isoquinolin-5-ylamino)-1-(4-methyl-2-phenyl-piperazin-1-yl)-ethanone] — 26-fold higher, 233 nM
- CN1CCCC(N(Cc2ccccc2C(F)(F)F)C(=O)CNc2cccc3c2CCN(CC2CC2)C3)C1 (racemic) [compound 136] — 9-fold lower, 1 nM
- CCN1CCc2cccc(NCC(=O)N(Cc3ccccc3)C3CCNC3)c2C1 (racemic) [compound 378] — 36-fold higher, 321 nM
- O=C(CNc1cccc2c1CCN(CC1CC1)C2)N(Cc1ccccc1C(F)(F)F)C1CCNC1 (racemic) [compound 381] — the same, 9 nM
- CNCCN(Cc1ccccc1C(F)(F)F)C(=O)CNc1cccc2c1CCN(CC1CC1)C2C (racemic) [compound 382] — within 1.5-fold, 8 nM
- CNCCN(Cc1ccccc1C(F)(F)F)C(=O)CNc1cccc2c1CCN(C(=O)C1CCOC1)C2 (racemic) [compound 392] — 3.3-fold higher, 30 nM
- CNCCN(Cc1ncccc1C(F)(F)F)C(=O)CNc1cccc2c1CCN(C(=O)C1CCOC1)C2 (racemic) [compound 417] — 1.7-fold higher, 15 nM
- O=C(CNc1cccc2c1CCN(CC1CC1)C2)N(Cc1ccccc1C(F)(F)F)CC1CCNC1 (racemic) [compound 441] — 1.8-fold lower, 5 nM
- CN(CCN(Cc1ccccc1C(F)(F)F)C(=O)CNc1cccc2c1CCN(CC1CC1)C2)C1CCOC1 (racemic) [compound 448] — 4.5-fold lower, 2 nM
- CC(CF)N(C)CCN(Cc1ccccc1C(F)(F)F)C(=O)CNc1cccc2c1CCN(CC1CC1)C2 (racemic) [compound 452] — 2.2-fold lower, 4 nM
- CCN1CCc2cccc(NCC(=O)N(CCC3CCCN3C)Cc3ccccc3)c2C1 (racemic) [compound 508] — 3.8-fold higher, 34 nM
- CCN1CCc2cccc(NCC(=O)N(Cc3ccccc3)C3CCN(C)C3)c2C1 (racemic) [compound 512] — 6.2-fold higher, 56 nM
- CCN1CCc2cccc(NCC(=O)N(Cc3ccccc3C(F)(F)F)C(C)c3ccn(CC)n3)c2C1 (racemic) [compound 521] — 30-fold higher, 269 nM
- CCN1CCc2cccc(NCC(=O)N(CCN(C)C)C(C)c3ccccc3C(F)(F)F)c2C1 (racemic) [compound 522] — 16-fold higher, 140 nM
- CN(C)CCN(Cc1ncccc1Cl)C(=O)CNc1cccc2c1CN(C(=O)[C@H]1C[C@H]1F)CC2 (relative stereo) [compound 459] — 6.6-fold higher, 59 nM
- CN(C)CCN(Cc1ncccc1Br)C(=O)CNc1cccc2c1CN(C(=O)[C@H]1C[C@H]1F)CC2 (relative stereo) [compound 460] — 9.4-fold higher, 85 nM
- CC(C)(O)CN(Cc1ncccc1Br)C(=O)CNc1cccc2c1CN(C(=O)[C@H]1C[C@H]1F)CC2 (relative stereo) [compound 461] — 47-fold higher, 420 nM
